Measured values as given in US9301942B2, “Use of icaritin for the preparation of composition for treating cancer” (priority 2013, dated 2016).

Tests used:
[1] = system: patients suffering from advanced breast cancer; assay: Phase Ia dose-escalating study, adverse events; assay type: in vivo; details: up to 1600 mg/d
Source text: “Maximum Tolerated Dose (MTD)” means the highest dose of a radiological or pharmacological treatment that will produce the desired effect without unacceptable toxicity. In the present invention, MTD is one dose level below the cohort in which 2 patients experienced a drug-related dose limited toxicity in cycle 1.
(§1) The clinical trial includes two phases: Phase I aims to seek the maximum tolerated dose in the patients. Phase II aims to obtain the administration dosage to the patient treatments.
(§2) 1.1 Phase 1a: Dose-escalating study with patients suffering from advanced breast cancer. Cohorts of 3-6 patients received one dose, and 6 planned doses of 50, 100, 200, 400, 800, 1600 mg/day were orally administered to the patients over at least a 28-day cycle. 1.2 Phase 1b: Fixed doses of Icaritin with 600 mg and 800 mg BID (Bis in diem) were administered to patients suffering from advanced solid tumors for at least a 28 day cycle. 2. Major Inclusion Criteria
(§3) Phase Ia: Females of age≧18 years old and ≦65 years old, suffering from advanced breast cancer which was not responsive to previous standard treatments, were selected based on Eastern Cooperative Oncology Group (ECOG) score≦1.

[2] = system: patients suffering from advanced breast cancer; assay: Phase Ia dose-escalating study, tumor assessment every 28 days; assay type: in vivo, humans
Procedure: as §1, §2, §3
Tumor assessment was performed every 28 days. […] Further, 1 patient completed 9 cycles.

[3] = system: patients suffering from advanced solid tumors; assay: Phase Ib fixed-dose study, (serious) adverse events; assay type: in vivo, humans
Procedure: as §2
(§4) Phase Ib: Advanced cancer patients without standard treatment, especially HCC patients with Child-Pugh Class A or B liver function, were selected.
(§5) Phase Ib: Patients with the following conditions were excluded: ECOG score≧2, ANC≦1500 cells/μL, platelet≦80,000 cells/μL, Hb≦9.0 g/dL, bilirubin>1.5×ULN, AST or ALT>5×ULN, or albumin<2.8 g/dL.
(§6) The patients with the following conditions were also excluded: prior systemic chemotherapy, chemoembolization, percutaneous ethanol injection, or surgery for HCC<30 days.

HCC patients = assay: Phase Ib efficacy and survival of HCC patients; assay type: in vivo, humans
Source text: “CR” means a complete response was achieved after treatment, that is, all signs of cancer in the patient disappeared in response to the treatment.
“SD” means a stable disease state was seen, that is, at the end of the treatment, the disease state of the patient was little changed from pre-treatment conditions.
“OS” means overall survival days of patients. Overall survival is an indication of the proportion of people within a group who are expected to be alive after a specified time, taking into account death due to any cause, both related and unrelated to the cancer in question.
“TTP” means time to progression in the patients, that is, the length of time from the date of diagnosis or the start of treatment for a disease until the disease starts to get worse or spread to other parts of the body. In a clinical trial, measuring the time to progression is one way to see how well a new treatment works.
as §2, §4, §5, §6

[4] = Phase Ia pharmacokinetics, plasma concentration before or after meal; assay type: in vivo, humans; details: for half-life: female, human, plasma, oral
Procedure: as §2

[5] = 600 mg bid (n = 12), based on evaluable patients, assessment every 2 cycles
[6] = 800 mg bid (n = 5), based on evaluable patients, assessment every 2 cycles

COc1ccc(-c2oc3c(CC=C(C)C)c(O)cc(O)c3c(=O)c2O)cc1 [Icaritin]
Tolerability in patients with advanced malignancies [1]: well tolerated | Dose tolerated toxicity ([1]; this phase of clinical trial): no dose tolerated toxicity was found | Tumor response (CR or PR) ([2]; Phase Ia, 50-1600 mg/day oral, assessment every 28 days): No CR or PR was observed | Anti-tumor effect in advanced breast cancer ([2]; overall conclusion): potential anti-tumor effect | G2 drug-related adverse events ([3]; 600 mg and 800 mg BID): no G2 drug-related adverse events was observed | Serious adverse event Cardiac sudden death, No ([3]; dose 600): 1 | Serious adverse event Cardiac sudden death, outcomes ([3]; dose 600): death | Serious adverse event Cardiac sudden death, relationship ([3]; dose 600): Unlikely related | Serious adverse event Dyspnea, No ([3]; dose 600): 2 | Serious adverse event Dyspnea, outcomes ([3]; dose 600): Death | Serious adverse event Dyspnea, relationship ([3]; dose 600): Not related | Serious adverse event Liver abscess, No ([3]; dose 600): 1 | Serious adverse event Liver abscess, outcomes ([3]; dose 600): unresolved | Serious adverse event Liver abscess, relationship ([3]; dose 600): Not related | Serious adverse event epilepsy, No ([3]; dose 600): 1 | Serious adverse event epilepsy, outcomes ([3]; dose 600): unresolved | Serious adverse event epilepsy, relationship ([3]; dose 600): Not related | Serious adverse event GI bleeding, No ([3]; dose 600/800): 2 | Serious adverse event GI bleeding, outcomes ([3]; dose 600/800): resolved/death | Serious adverse event GI bleeding, relationship ([3]; dose 600/800): Not related | Serious adverse event Sepsis, No ([3]; dose 800): 1 | Serious adverse event Sepsis, outcomes ([3]; dose 800): resolved | Serious adverse event Sepsis, relationship ([3]; dose 800): Not related | Serious adverse effect of pneumonia, relationship to drug ([3]; only one observed during study): not considered drug-related | Best response PD, patients (%) (HCC patients; [5]): 4 (40%) patients (%) | Best response PR, patients (%) (HCC patients; [5]): 1 (10%) patients (%) | Best response SD, patients (%) (HCC patients; [5]): 5 (50%) patients (%) | Best response PD, patients (%) (HCC patients; [6]): 3 (60%) patients (%) | Best response PR, patients (HCC patients; [6]): 0 patients | Best response SD, patients (HCC patients; [6]): 0 patients | Median OS of HCC patients (HCC patients; Phase Ib, 17 patients analyzed, 95% CI:32-265, FIG. 7): 113 days | Median TTP of HCC patients (HCC patients; Phase Ib, FIG. 6): 112 days | AFP of HCC patient, as treatment progressed (HCC patients; after decrease under treatment, FIG. 5): 3.53 ng/mL | Abdominal lymph nodes, B-mode ultrasound image of an HCC patient (HCC patients; after eight months of treatment, FIG. 4a/4b): complete disappearance of abdominal lymph nodes | AFP of HCC patient, start value (HCC patients; before the decrease, FIG. 5): 5216 ng/mL | Efficacy in hepatocellular cancer (HCC patients; overall conclusion): promising efficacy | Plasma concentration after a meal versus fasting ([4]; 800 mg once daily, FIG. 1): higher | Absorption saturation ([4]; 1600 mg): absorption saturation occurs | Plasma concentration after a meal versus fasting ([4]; 1600 mg once daily, FIG. 2): higher | Plasma concentration versus dose ([4]; 400, 800 and 1600 mg once daily after meal, FIG. 3): increases with dose but not in a completely linear pattern | Bioavailability, post-meal (fed) dosing versus fasting dosing ([4]; 800 and 1600 mg): better bioavailability in fed dosing | half-life ([4]; 800 mg Icaritin BID): 4.8 ± 2.7 h | half-life ([4]; 1600 mg Icaritin BID): 4.5 ± 0.8 h | Maximum plasma concentration at 800 mg compared with 1600 mg ([4]; once daily after meal, FIG. 3): close to the plasma concentration of 1600 mg Icaritin
